Data reported in US7897638B2, “Synthesis of nitrodibenzylfuran chromophore for photodeprotection of organic molecules” (Philadelphia Health & Education Corporation, priority 2005, dated 2011).
Where two headings read alike, the source gives them in different places.

What was measured:
Two-photon photolysis = format: physicochemical
Protocol: Two-photon photolysis (2PP) of a solution contains MNI-glutamate (1.4 mM) and NDBF-EGTA (0.1 mM), by raster scanning the solution (256 pulses, 4 ms each, 300 mW).

[1] = Quantum yield of photolysis by comparison with MNI-glutamate, HPLC; format: physicochemical; details: photolyzed at 350 nm, relative to MNI-glutamate; listed as NDBF Calcium
Excerpt: Inventors measured the quantum yield of photolysis of NDBF-EGTA by comparison with a known standard, 4-methoxy-7-nitroindolinyl(MNI)-glutamate (Matsuzaki, et al., 1999). A solution containing NDBF-EGTA and MNI-glutamate was photolyzed at 350 nm, in order to determine the relative % photolysis of the two caged compounds. The concentrations of the two compounds were set so that their chromophores would absorb the same amount of light (MNI/NDBF ratio 3.7:1), and so that the total optical density was 0.4. Under these conditions the same number of excited states are created simultaneously for both cages, making determination of the quantum for NBDF-EGTA more reliable. As a control, both cages were photolyzed separately to check that there was no interference from simultaneous photolysis. Inosine was also included in the photolysis reaction mixture, as a photochemically inert standard. MNI-glutamate has a quantum yield of photolysis of 0.085. […] Saturating [Ca] had no effect on this value.

[2] = Photochemical properties of caged compounds (Table 1); format: physicochemical; details: for ε/M^−1 cm^−1 (extinction coefficient): NDBF chromophore; for ε · φ (efficiency of use of the incident light): product of extinction coefficient and quantum yield
Excerpt: The extinction coefficient (ε) and the quantum yield (φ) are the two photochemical properties that define the efficiency of a chromophore. The former is an absolute value of a chromophore; the latter depends upon the exact nature of the photolyzed bond, as well as the chromophore itself. The four most widely used caged compounds (ATP, IP3, glutamate, Ca) with the ortho-nitrobenzyl chromophore have ε and φ in the range of 430-970 and 0.14-0.63. The product (ε·φ) for each caged compound defines the efficiency of use of the incident light.

[3] = widely used, commercially available caged compounds; cited from earlier work
[4] = known standard; cited from earlier work

2-photon cross-section (Two-photon photolysis)	Compound	φ (quantum yield of photolysis) [1]	ε/M^−1 cm^−1 (extinction coefficient) [2]	Rate/s^−1 (rate of release) ([2]; NDBF-caged calcium)	ε · φ (efficiency of use of the incident light) [2]	Rate/s^−1 (rate of release) [3]	φ (quantum yield) [3]	quantum yield of photolysis [4]
–	COc1cc(COP(=O)(O)OP(=O)(O)OP(=O)(O)OCC2OC(n3cnc4c(N)ncnc43)C(O)C2O)c([N+](=O)[O-])cc1OC (centres unmarked) [DMNB ATP]	–	–	–	–	18 s⁻¹	0.07	–
at least 0.3 GM	nitrodibenzylfuran [NDBF]	–	18,400 M^−1 cm^−1	–	above 10,000	–	–	–
0.06 GM	COc1ccc([N+](=O)[O-])c2c1CCN2C(=O)CC[C@H](N)C(=O)O [MNI-glutamate, 4-methoxy-7-nitroindolinyl(MNI)-glutamate, reference compound]	–	–	–	–	–	–	0.085
–	COc1cc(COP2(=O)OCC3OC(n4cnc5c(N)ncnc54)C(O)C3O2)c([N+](=O)[O-])cc1OC (centres unmarked) [DMNB cAMP]	–	–	–	–	300 s⁻¹	0.05	–

Compound	2-photon cross-section (Two-photon photolysis)	φ (quantum yield of photolysis) [1]	ε/M^−1 cm^−1 (extinction coefficient) [2]	Rate/s^−1 (rate of release) ([2]; NDBF-caged calcium)	ε · φ (efficiency of use of the incident light) [2]	Rate/s^−1 (rate of release) [3]	φ (quantum yield) [3]	quantum yield of photolysis [4]
NDBF-EGTA	0.3-0.6 GM	0.6	18,400 M^−1 cm^−1	25,000 s^−1	11,000	–	–	–
